System: HEK293 cells
Test: Preliminary screening as DNA vectors, GFP transfection of HEK293 cells
Format: cell-based
Conditions: amino lipid/DOPE liposome with 75 ng plasmid DNA (psin-EGFP-IRES-Puro); number of GFP-expressing cells divided by total nuclei (Hoechst)
In short: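 Lipid + DOPE liposomes (NaOAc, pH 5.6) complexed w/ 75 ng psin-EGFP-IRES-Puro, 30 min RT; added to 3-5×10^4 HEK293/well, 37° C. Hoechst 0.2 μg/mL at 20-24 h, imaged after further 20-24 h. Efficiency = GFP+ cells / total nuclei.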

Structure (SMILES) | Absolute DNA transfection efficiency in HEK293 cells [%]
CCCCCCCCCSc1nc(NCCCN2CCN(C)CC2)nc(SCCCCCCCC)n1 [S8S9 D9] | 23.5
CCCCCCCCCSc1nc(NCC2CCN(C)CC2)nc(SCCCCCCCC)n1 [S8S9 D10] | 27.9
CCCCCCCCCCSc1nc(NCCN(C)C)nc(SCCCCCCCC)n1 [S8S10 D1] | 16.3
CCCCCCCCCCSc1nc(NCCN2CCOCC2)nc(SCCCCCCCC)n1 [S8S10 D2] | 18.8
CCCCCCCCCCSc1nc(NCCN2CCCC2)nc(SCCCCCCCC)n1 [S8S10 D3] | 8.9
CCCCCCCCCCSc1nc(NCCN2CCCCC2)nc(SCCCCCCCC)n1 [S8S10 D4] | 8.3
CCCCCCCCCCSc1nc(NCCN2CCN(C)CC2)nc(SCCCCCCCC)n1 [S8S10 D5] | 19.5
CCCCCCCCCCSc1nc(NCCCN(C)C)nc(SCCCCCCCC)n1 [S8S10 D6] | 9.3
CCCCCCCCCCSc1nc(NCCN(CC)CC)nc(SCCCCCCCC)n1 [S8S10 D7] | 11.4
CCCCCCCCCCSc1nc(NCCCN2CCOCC2)nc(SCCCCCCCC)n1 [S8S10 D8] | 13.7
CCCCCCCCCCSc1nc(NCCCN2CCN(C)CC2)nc(SCCCCCCCC)n1 [S8S10 D9] | 25.6
CCCCCCCCCCSc1nc(NCC2CCN(C)CC2)nc(SCCCCCCCC)n1 [S8S10 D10] | 26.2
CCCCCCCCCCCSc1nc(NCCN(C)C)nc(SCCCCCCCC)n1 [S8S11 D1] | 9.2
CCCCCCCCCCCSc1nc(NCCN2CCOCC2)nc(SCCCCCCCC)n1 [S8S11 D2] | 17.9
CCCCCCCCCCCSc1nc(NCCN2CCCC2)nc(SCCCCCCCC)n1 [S8S11 D3] | 6.1
CCCCCCCCCCCSc1nc(NCCN2CCCCC2)nc(SCCCCCCCC)n1 [S8S11 D4] | 8.5
CCCCCCCCCCCSc1nc(NCCN2CCN(C)CC2)nc(SCCCCCCCC)n1 [S8S11 D5] | 10.6
CCCCCCCCCCCSc1nc(NCCCN(C)C)nc(SCCCCCCCC)n1 [S8S11 D6] | 7.9
CCCCCCCCCCCSc1nc(NCCN(CC)CC)nc(SCCCCCCCC)n1 [S8S11 D7] | 10.3
CCCCCCCCCCCSc1nc(NCCCN2CCOCC2)nc(SCCCCCCCC)n1 [S8S11 D8] | 15.3
CCCCCCCCCCCSc1nc(NCCCN2CCN(C)CC2)nc(SCCCCCCCC)n1 [S8S11 D9] | 12.8
CCCCCCCCCCCSc1nc(NCC2CCN(C)CC2)nc(SCCCCCCCC)n1 [S8S11 D10] | 42.4
CCCCCCCCCCCCSc1nc(NCCN(C)C)nc(SCCCCCCCC)n1 [S8S12 D1] | 10.7
CCCCCCCCCCCCSc1nc(NCCN2CCOCC2)nc(SCCCCCCCC)n1 [S8S12 D2] | 16.1
CCCCCCCCCCCCSc1nc(NCCN2CCCC2)nc(SCCCCCCCC)n1 [S8S12 D3] | 10.9

Structure (SMILES) | Absolute DNA transfection efficiency in HEK293 cells [%]
CCCCCCCCCCCCSc1nc(NCCN2CCCCC2)nc(SCCCCCCCC)n1 [S8S12 D4] | 10.8
CCCCCCCCCCCCSc1nc(NCCN2CCN(C)CC2)nc(SCCCCCCCC)n1 [S8S12 D5] | 24.8
CCCCCCCCCCCCSc1nc(NCCCN(C)C)nc(SCCCCCCCC)n1 [S8S12 D6] | 12.6
CCCCCCCCCCCCSc1nc(NCCN(CC)CC)nc(SCCCCCCCC)n1 [S8S12 D7] | 9.3
CCCCCCCCCCCCSc1nc(NCCCN2CCOCC2)nc(SCCCCCCCC)n1 [S8S12 D8] | 34.4
CCCCCCCCCCCCSc1nc(NCCCN2CCN(C)CC2)nc(SCCCCCCCC)n1 [S8S12 D9] | 3.5
CCCCCCCCCCCCSc1nc(NCC2CCN(C)CC2)nc(SCCCCCCCC)n1 [S8S12 D10] | 23.5
CCCCCCCCCCCCN(CCCCCCCCCCCC)c1nc(NCCN(C)C)nc(SCCCCCCCC)n1 [S8^2N12 D1] | 0.0
CCCCCCCCCCCCN(CCCCCCCCCCCC)c1nc(NCCN2CCOCC2)nc(SCCCCCCCC)n1 [S8^2N12 D2] | 0.0
CCCCCCCCCCCCN(CCCCCCCCCCCC)c1nc(NCCN2CCCC2)nc(SCCCCCCCC)n1 [S8^2N12 D3] | 0.1
CCCCCCCCCCCCN(CCCCCCCCCCCC)c1nc(NCCN2CCCCC2)nc(SCCCCCCCC)n1 [S8^2N12 D4] | 0.0
CCCCCCCCCCCCN(CCCCCCCCCCCC)c1nc(NCCN2CCN(C)CC2)nc(SCCCCCCCC)n1 [S8^2N12 D5] | 0.8
CCCCCCCCCCCCN(CCCCCCCCCCCC)c1nc(NCCCN(C)C)nc(SCCCCCCCC)n1 [S8^2N12 D6] | 0.5
CCCCCCCCCCCCN(CCCCCCCCCCCC)c1nc(NCCN(CC)CC)nc(SCCCCCCCC)n1 [S8^2N12 D7] | 0.1
CCCCCCCCCCCCN(CCCCCCCCCCCC)c1nc(NCCCN2CCOCC2)nc(SCCCCCCCC)n1 [S8^2N12 D8] | 0.0
CCCCCCCCCCCCN(CCCCCCCCCCCC)c1nc(NCCCN2CCN(C)CC2)nc(SCCCCCCCC)n1 [S8^2N12 D9] | 0.7
CCCCCCCCCCCCN(CCCCCCCCCCCC)c1nc(NCC2CCN(C)CC2)nc(SCCCCCCCC)n1 [S8^2N12 D10] | 0.8
CCCCCCCCCSc1nc(NCCCCCC)nc(NCCN(C)C)n1 [S9N6 D1] | 16.1
CCCCCCCCCSc1nc(NCCCCCC)nc(NCCN2CCOCC2)n1 [S9N6 D2] | 2.1
CCCCCCCCCSc1nc(NCCCCCC)nc(NCCN2CCCC2)n1 [S9N6 D3] | 27.0
CCCCCCCCCSc1nc(NCCCCCC)nc(NCCN2CCCCC2)n1 [S9N6 D4] | 20.7
CCCCCCCCCSc1nc(NCCCCCC)nc(NCCN2CCN(C)CC2)n1 [S9N6 D5] | 22.4
CCCCCCCCCSc1nc(NCCCCCC)nc(NCCCN(C)C)n1 [S9N6 D6] | 8.8
CCCCCCCCCSc1nc(NCCCCCC)nc(NCCN(CC)CC)n1 [S9N6 D7] | 9.8
CCCCCCCCCSc1nc(NCCCCCC)nc(NCCCN2CCOCC2)n1 [S9N6 D8] | 7.8

Structure (SMILES) | Absolute DNA transfection efficiency in HEK293 cells [%]
CCCCCCCCCSc1nc(NCCCCCC)nc(NCCCN2CCN(C)CC2)n1 [S9N6 D9] | 11.0
CCCCCCCCCSc1nc(NCCCCCC)nc(NCC2CCN(C)CC2)n1 [S9N6 D10] | 9.7
CCCCCCCCCSc1nc(NCCCCCCC)nc(NCCN(C)C)n1 [S9N7 D1] | 36.0
CCCCCCCCCSc1nc(NCCCCCCC)nc(NCCN2CCOCC2)n1 [S9N7 D2] | 4.4
CCCCCCCCCSc1nc(NCCCCCCC)nc(NCCN2CCCC2)n1 [S9N7 D3] | 27.3
CCCCCCCCCSc1nc(NCCCCCCC)nc(NCCN2CCCCC2)n1 [S9N7 D4] | 21.9
CCCCCCCCCSc1nc(NCCCCCCC)nc(NCCN2CCN(C)CC2)n1 [S9N7 D5] | 18.3
CCCCCCCCCSc1nc(NCCCCCCC)nc(NCCCN(C)C)n1 [S9N7 D6] | 12.4
CCCCCCCCCSc1nc(NCCCCCCC)nc(NCCN(CC)CC)n1 [S9N7 D7] | 15.2
CCCCCCCCCSc1nc(NCCCCCCC)nc(NCCCN2CCOCC2)n1 [S9N7 D8] | 6.1
CCCCCCCCCSc1nc(NCCCCCCC)nc(NCCCN2CCN(C)CC2)n1 [S9N7 D9] | 12.1
CCCCCCCCCSc1nc(NCCCCCCC)nc(NCC2CCN(C)CC2)n1 [S9N7 D10] | 9.3
CCCCCCCCCSc1nc(NCCCCCCCC)nc(NCCN(C)C)n1 [S9N8 D1] | 37.3
CCCCCCCCCSc1nc(NCCCCCCCC)nc(NCCN2CCOCC2)n1 [S9N8 D2] | 13.9
CCCCCCCCCSc1nc(NCCCCCCCC)nc(NCCN2CCCC2)n1 [S9N8 D3] | 37.6
CCCCCCCCCSc1nc(NCCCCCCCC)nc(NCCN2CCCCC2)n1 [S9N8 D4] | 27.3
CCCCCCCCCSc1nc(NCCCCCCCC)nc(NCCN2CCN(C)CC2)n1 [S9N8 D5] | 30.3
CCCCCCCCCSc1nc(NCCCCCCCC)nc(NCCCN(C)C)n1 [S9N8 D6] | 17.9
CCCCCCCCCSc1nc(NCCCCCCCC)nc(NCCN(CC)CC)n1 [S9N8 D7] | 15.7
CCCCCCCCCSc1nc(NCCCCCCCC)nc(NCCCN2CCOCC2)n1 [S9N8 D8] | 12.2
CCCCCCCCCSc1nc(NCCCCCCCC)nc(NCCCN2CCN(C)CC2)n1 [S9N8 D9] | 25.7
CCCCCCCCCSc1nc(NCCCCCCCC)nc(NCC2CCN(C)CC2)n1 [S9N8 D10] | 17.2
CCCCCCCCCNc1nc(NCCN(C)C)nc(SCCCCCCCCC)n1 [S9N9 D1] | 35.3
CCCCCCCCCNc1nc(NCCN2CCOCC2)nc(SCCCCCCCCC)n1 [S9N9 D2] | 24.0
CCCCCCCCCNc1nc(NCCN2CCCC2)nc(SCCCCCCCCC)n1 [S9N9 D3] | 54.9

Reference: patent US20230123334A1, “AMINO LIPID COMPOUND, PREPARATION METHOD THEREFOR, AND APPLICATION THEREOF” (SHENZHEN SHENXIN BIOTECHNOLOGY CO., LTD., priority 2020, published 2023)
